# In publication PMC8765437, “GSK3640254 Is a Novel HIV-1 Maturation Inhibitor with an Optimized Virology Profile” (Antimicrobial Agents and Chemotherapy, 2022):
# Where two headings read alike, the source gives them in different places.
# How the values were obtained:
# [1] = Human serum protein binding, ultracentrifugation assay; type: in vitro ADME
# [2] = test system: NL4-3P373S viruses (WT and V370A); test: Resistance selection by serial passage in increasing GSK’254 concentrations; type: cell-based, HIV-1; conditions: starting concentration 2 nM GSK’254
# Description: NL4-3GagP373S (WT) and the SDM NL4-3 GagP373SV370A (V370A) were used to start the selections. These variants were selected as parent virus based on common WT and V370A expression in HIV-1 subtypes (47% WT and ∼36% V370A as indicated by the LANL HIV sequence database (https://www.hiv.lanl.gov/content/index). Each selection was performed in triplicate, starting with 2 × 10^6 MT-2 cells infected with each virus at an MOI of 0.005 (50% tissue culture infectious dose determined by CPE and cultured in 2 × 10^5 cells/mL in compound-containing medium). Each passage was terminated at ∼100% CPE. To passage virus, the cultures were centrifuged, and 25 μL of viral supernatants was transferred into 10 mL of a fresh cell culture in the presence of a 2-fold-increased compound concentration.
# [3] = Cytotoxicity in MT-2 cells (MTS, 4-day incubation); type: cell-based; conditions: human, read-out: half-maximal cytotoxic concentration (CC50)
# Description: The assay was performed in a phenol red-free medium at an initial cell density of 10,000 per well in a 96-well plate format. Cell viability was determined using a redox dye assay [3-(4,5-dimethylthiazol-2-yl)-5-(3-carboxymethoxyphenyl)-2-(4-sulfophenyl)-2H-tetrazolium, inner salt (MTS); Promega, Madison, WI] according to the manufacturer’s protocol. Half-maximal cytotoxic concentration values were calculated by fitting to a 4-parameter logistic formula y = A + {[B − A]/1 + [(C/x)^d]}, where A and B are minimal and maximal percent inhibition, respectively, C is the EC50, d is the Hill slope, and x represents compound concentrations.
# [4] = test system: NLRepRlucP373S-based viruses; test: microbe, parasite or virus in culture; type: cell-based, HIV-1; conditions: for EC50 / EC90: 10% FBS + 40% HS + 27 mg/mL of HSA
# [5] = in vivo, cited from earlier work
# HIV-1 laboratory strains = test: Laboratory strains, luciferase activity in CEM-NKR-CCR5-Luc cells; type: cell-based
# Description: Virus yields were measured in dose-response experiments by either luciferase activity in human T-cells (CEM-NKR-CCR5-Luc), extracellular reverse transcriptase activity in MT-2 cells (T-tropic viruses), or extracellular p24 antigen in PM1 cells (M-tropic viruses).
# Multiple-cycle assays using recombinant viruses or clinical isolates were used to assess MI antiviral activity as described previously ([10]). pNLRepRlucP373S (the P373S change is in the Gag gene and converts an outlier polymorphism in the NL4-3 gene to the prevalent amino acid in the population) plasmids containing SDMs in Gag or gag/pr regions from clinical isolates were transfected into HEK 293T cells, and the supernatant containing recombinant virus was harvested after 4 to 5 days. Virus was used to infect MT-2 cells in the presence of a 3-fold serially diluted compound at a final dimethyl sulfoxide (DMSO) concentration of 1%. The inocula of the reporter viruses were determined based on the luciferase activity detected on day 4 postinfection. The MOI (ratio of infectious virions to target cells) of reporter-free laboratory strains and clinical isolates was 0.005, as derived from a tissue culture infectious dose study. Clinical isolates or reporter-free viruses were examined in the reporter CEM-NKR-CCR5-Luc cells or PBMCs at MOIs ranging from 0.005 to 0.01. Each infection started with a drug-free preincubation of the cell-virus mixtures, performed at 37°C and 5% CO2 for either 1 h at 2 times the final cell density (reporter viruses) or 1 h (reporter-free laboratory strains) or 3 h (clinical isolates) using cell pellets in 0.5 mL of medium. After preincubation, cell-virus mixtures were added to compound-containing 96-well plates for a final cell density of either 10,000 (MT-2 cells for reporter viruses), 20,000 (MT-2 and PM1 cells for reporter-free laboratory strains), 200,000 (PBMCs for clinical isolates), or 500,000 (CEM-NKR-CCR5-Luc for reporter-free laboratory strains) cells per well. The CEM-NKR-CCR5-Luc cell assay was performed in the presence of Polybrene (10 μg/mL). Virus growth was determined on days 4 to 5 postinfection for reporter variants or days 5 to 11 for the other viruses. The reporter viruses were detected by a luciferase assay according to manufacturer protocols (Brite-Glo luciferase kit [Promega] for CEM-NKR-CCR5-Luc cells and Dual-Luciferase Reporter 1000 assay system [Promega] for the other cells), and luminescence was detected on a Wallac Trilux. The growth of clinical isolates in PBMCs was quantitated by reverse transcriptase activity in a 96-well scintillation proximity assay (SPA). Twenty microliters of culture supernatants was mixed with 40 μL of reaction cocktail (62.5 mM Tris-HCl [pH 7.8], 100 mM KCl, 0.0625% NP-40, 2.5 mM dithiothreitol [DTT], 6.25 mM MgCl2, 1 mM EGTA, 6.25 μg/mL of poly rA, 2.5 μg/mL of streptavidin SPA beads prebound with biotinylated-dT12-18, and 1 μCi of [^3H]TTP). Mixtures were incubated at 37°C for ∼3 h and quenched with 100 μl of 0.25 M EDTA per well. Luminescence was detected on a Wallac Trilux programmed for tritium counting with SPA beads in opaque plates. The growth of the reporter-free laboratory M-tropic strains and clinical isolates was monitored by a p24 enzyme-linked immunosorbent assay (ELISA; PerkinElmer Life Sciences, Waltham, MA) performed on culture supernatants.
# Maximal percent inhibition values were calculated as MPI = 100 – (mean signals at the 2 highest concentrations of compound/mean signal of 2 no-drug control wells) × 100.
# HIV-1 = test system: HIV-1; design: method as in PMID 30352054; conditions: in combination with emtricitabine and tenofovir disoproxil fumarate; cited from earlier work
# [6] = Human immunodeficiency virus 1, HS27, V370A
# [7] = Human immunodeficiency virus 1, HS27, Wild type
# [8] = Human immunodeficiency virus 1, HS27, ΔV370
compound,measurement,setting,value
C=C(C)[C@@H]1CC[C@]2(NCCN3CCS(=O)(=O)CC3)CC[C@]3(C)[C@H](CC[C@@H]4[C@@]5(C)CC=C(C6=CC[C@@](CF)(C(=O)O)CC6)C(C)(C)[C@@H]5CC[C@]43C)[C@@H]12 [GSK’254],fraction unbound,[1],0.14
same,average time until sufficient viral titer to permit passage 1,[2],24 days
same,CC50 at 4 days,[3],13000 ± 6000 nM
same,EC50,[4]; [6],9.1 nM
same,EC90,[4]; [6],42.2 nM
same,EC50,[4]; [7],12.3 nM
same,EC90,[4]; [7],26.1 nM
same,EC50,[4]; [8],38.2 nM
same,EC90,[4]; [8],195 nM
same,average potency decrease in human serum,"[4]; average of WT, V370A and ΔV370 viruses",7.9 fold
same,safety and tolerability,[5]; po,acceptable safety and tolerability
same,gastrointestinal intolerability,[5],only mild gastrointestinal intolerability
same,EC50,"HIV-1 laboratory strains; Human immunodeficiency virus 1, 8 HIV-1 laboratory strains (luciferase or p24 endpoints), read-out: mean (standard error of the mean) EC50",0.8 nM
same,EC50,"HIV-1 laboratory strains; Human immunodeficiency virus 1, 8 HIV-1 laboratory strains, read-out: EC50 range",0.3 to 1.2 nM
same,EC50,"HIV-1 laboratory strains; Human immunodeficiency virus 1, HXB2, HXB2, T tropic, read-out: EC50 ± SD",0.7 ± 0.1 nM
same,EC50,"HIV-1 laboratory strains; Human immunodeficiency virus 1, IIIB, IIIB, T tropic, read-out: EC50 ± SD",0.6 ± 0.4 nM
same,EC50,"HIV-1 laboratory strains; Human immunodeficiency virus 1, LAI, T tropic, read-out: EC50 ± SD",0.7 ± 0.1 nM
same,EC50,"HIV-1 laboratory strains; Human immunodeficiency virus 1, MN, T tropic, read-out: EC50 ± SD",0.3 nM
same,EC50,"HIV-1 laboratory strains; Human immunodeficiency virus 1, NL43, NL4-3, T tropic, read-out: EC50 ± SD",0.9 ± 0.2 nM
same,EC50,"HIV-1 laboratory strains; Human immunodeficiency virus 1, RF, T tropic, read-out: EC50 ± SD",0.9 ± 0.15 nM
same,EC50,"HIV-1 laboratory strains; Human immunodeficiency virus 1, reporter cell line, read-out: EC50 values for T-tropic HIV-1",< 1 nM
"C=C(C)[C@@H]1CC[C@]2(NCCN3CCS(=O)(=O)CC3)CC[C@]3(C)[C@H](CC[C@@H]4[C@@]5(C)CC=C(c6ccc(C(=O)O)cc6)C(C)(C)[C@@H]5CC[C@]43C)[C@@H]12 [GSK’795, reference compound]",gastrointestinal adverse events,HIV-1,a number of gastrointestinal adverse events
